According to patent US20170000133A1, “BENZOXABOROLE FUNGICIDES” (SYNGENTA PARTICIPATIONS AG, priority 2013, published 2017):

Assays:
Plasmopara viticola = assay: whole plant or invertebrate; type: in vivo; conditions: foliar, read-out: disease control
[1] = system: Puccinia recondita f. sp. tritici; assay: Puccinia recondita f. sp. tritici / wheat / leaf disc curative (brown rust); type: in vivo; conditions: foliar, 192 h, wheat leaf segments, applied one day after inoculation, assessed 8 dpi, read-out: disease control
Description: 4. Puccinia recondita f. sp. tritici/Wheat/Leaf Disc Curative (Brown Rust) Wheat leaf segments are placed on agar in multiwell plates (24-well format). The leaf disks are then inoculated with a spore suspension of the fungus. One day after inoculation the test solution is applied. After appropriate incubation the activity of a compound is assessed 8 dpi (days after inoculation) as curative fungicidal activity. Dose range: 200-22 ppm.

Pythium ultimum = Pythium ultimum / liquid culture (seedling damping off); type: cell-based; conditions: Globisporangium ultimum; 200 ppm; potato dextrose broth, 24° C., 2-3 days after application; read-out: disease control (inhibition of growth determined photometrically)
Gaeumannomyces graminis = Gaeumannomyces graminis / liquid culture (take-all of cereals); type: cell-based; conditions: PDB potato dextrose broth, 24° C., 4-5 days after application, read-out: disease control (inhibition of growth determined photometrically)
In short: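 Growth inhibition measured photometrically 4–5 days post-application, following incubation at 24 °C. Test compound, applied from DMSO at 200 ppm, mixed with fungal mycelial fragments in potato dextrose broth.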

[2] = system: Thanatephorus cucumeris (Rhizoctonia solani); assay: Thanatephorus cucumeris (Rhizoctonia solani) / liquid culture (foot rot, damping-off); type: cell-based; conditions: PDB potato dextrose broth, 24° C., 3-4 days after application, read-out: disease control (inhibition of growth determined photometrically)
In short: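 Photometric growth-inhibition readout taken 3-4 days after application, with cultures incubated at 24 °C. Test compound was applied at 200 ppm from DMSO solution to R. solani mycelial fragments in PDB.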

[3] = system: Mycosphaerella arachidis (Cercospora arachidicola); assay: Mycosphaerella arachidis (Cercospora arachidicola) / liquid culture (early leaf spot); type: cell-based; conditions: PDB potato dextrose broth, 24° C., 4-5 days after application, read-out: disease control (inhibition of growth determined photometrically)
In short: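 Test compound, applied at 200 ppm from DMSO solution, was combined with spore-containing potato dextrose broth. Photometric growth inhibition was scored after 4-5 days at 24° C.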

[4] = system: Glomerella lagenarium (Colletotrichum lagenarium); assay: Glomerella lagenarium (Colletotrichum lagenarium) / liquid culture (anthracnose); type: cell-based; conditions: Colletotrichum orbiculare, PDB potato dextrose broth, 24° C., 3-4 days after application, read-out: disease control (inhibition of growth measured photometrically)
In short: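 Compound was applied at 200 ppm from DMSO solution, then potato dextrose broth carrying cryostored fungal spores was added. Growth inhibition was measured by photometry after 3-4 days of incubation at 24° C.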

[5] = system: Mycosphaerella graminicola (Septoria tritici); assay: Mycosphaerella graminicola (Septoria tritici) / liquid culture (Septoria blotch); type: cell-based; conditions: Zymoseptoria tritici, PDB potato dextrose broth, 24° C., 4-5 days after application, read-out: disease control (inhibition of growth determined photometrically)
In short: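 Growth inhibition was read photometrically 4-5 days after application, following incubation at 24° C of fungal conidia in potato dextrose broth over test compound (200 ppm, from DMSO solution) in microtiter plates.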

[6] = system: Monographella nivalis (Microdochium nivale); assay: Monographella nivalis (Microdochium nivale) / liquid culture (foot rot cereals); type: cell-based; conditions: PDB potato dextrose broth, 24° C., 4-5 days after application, read-out: disease control (inhibition of growth determined photometrically)
Fusarium culmorum = assay: microbe, parasite or virus in culture; type: cell-based; conditions: read-out: disease control (inhibition of growth determined visually)
Sclerotinia sclerotiorum = Sclerotinia sclerotiorum / liquid culture (cottony rot); type: cell-based; conditions: PDB potato dextrose broth, 24° C., 3-4 days after application, read-out: disease control (inhibition of growth determined visually)
Description: 18. Sclerotinia sclerotiorum/Liquid Culture (Cottony Rot): Mycelia fragments of a newly grown liquid culture of the fungus were directly mixed into nutrient broth (PDB potato dextrose broth). After placing a (DMSO) solution of the test compounds into a microtiter plate (96-well format) the nutrient broth containing the fungal material was added. The test plates were incubated at 24° C. and the inhibition of growth was determined visually 3-4 days after application.

[7] = system: Botryotinia fuckeliana (Botrytis cinerea); assay: Botryotinia fuckeliana (Botrytis cinerea) / liquid culture (gray mould); type: cell-based; conditions: Vogels broth, 24° C., 3-4 days after application, read-out: disease control (inhibition of growth determined photometrically)
Description: 10. Botryotinia fuckeliana (Botrytis cinerea)/Liquid Culture (Gray Mould): Conidia of the fungus from cryogenic storage were directly mixed into nutrient broth (Vogels broth). After placing a DMSO solution of test compound into a 96-well microtiter plate at an application rate of 200 ppm, the nutrient broth containing the fungal spores was added. The test plates were incubated at 24° C. and the inhibition of growth was determined photometrically 3-4 days after application.

| SMILES | pest or weed control at 200 ppm (Plasmopara viticola) [%] | pest or weed control at 200 ppm [1] [%] | inhibition at 200 ppm (Pythium ultimum) [%] | inhibition at 200 ppm (Gaeumannomyces graminis) [%] | inhibition at 200 ppm [2] [%] | inhibition at 200 ppm [3] [%] | inhibition at 200 ppm [4] [%] | inhibition at 200 ppm [5] [%] | inhibition at 200 ppm [6] [%] | inhibition at 200 ppm (Fusarium culmorum) [%] | inhibition at 200 ppm (Sclerotinia sclerotiorum) [%] | melting point [°C] | inhibition at 200 ppm [7] [%] |
| --- | --- | --- | --- | --- | --- | --- | --- | --- | --- | --- | --- | --- | --- |
| COC(=O)C(C)OC(=O)c1cc2c(cc1F)COB2O (stereo not drawn) [Compound 393] | ≥ 80 | ≥ 80 | ≥ 80 | ≥ 80 | ≥ 80 |  |  |  |  |  |  |  |  |
| O=C(OCC(F)F)c1ccc2c(c1)B(O)OC2 [Compound 365] | ≥ 80 | ≥ 80 | ≥ 80 | ≥ 80 |  | ≥ 80 |  |  |  |  |  |  |  |
| COC(COC(=O)c1cc2c(cc1Cl)COB2O)OC [Compound 449] |  |  | ≥ 80 | ≥ 80 |  | ≥ 80 | ≥ 80 | ≥ 80 | ≥ 80 | ≥ 80 | ≥ 80 | 122 to 124 |  |
| COC(=O)C#CCOC(=O)c1ccc2c(c1)B(O)OC2 [Compound 361] | ≥ 80 |  | ≥ 80 | ≥ 80 | ≥ 80 | ≥ 80 | ≥ 80 | ≥ 80 | ≥ 80 | ≥ 80 | ≥ 80 |  | ≥ 80 |
| CCC#CCOC(=O)c1cc2c(cc1F)COB2O [Compound 379] | ≥ 80 |  | ≥ 80 | ≥ 80 | ≥ 80 | ≥ 80 | ≥ 80 | ≥ 80 | ≥ 80 | ≥ 80 | ≥ 80 |  |  |
| O=C(OCc1cccc(F)c1)c1ccc2c(c1)B(O)OC2 [Compound 375] |  |  | ≥ 80 | ≥ 80 | ≥ 80 | ≥ 80 | ≥ 80 | ≥ 80 | ≥ 80 | ≥ 80 | ≥ 80 | 125 to 127 | ≥ 80 |
| O=C(OCC#Cc1ccccc1)c1ccc2c(c1)B(O)OC2 [Compound 359] | ≥ 80 |  | ≥ 80 | ≥ 80 | ≥ 80 | ≥ 80 |  | ≥ 80 | ≥ 80 | ≥ 80 | ≥ 80 |  | ≥ 80 |
| COC(=O)C#CCOC(=O)c1cc2c(cc1F)COB2O [Compound 424] | ≥ 80 |  | ≥ 80 | ≥ 80 | ≥ 80 | ≥ 80 | ≥ 80 | ≥ 80 | ≥ 80 | ≥ 80 | ≥ 80 | 112 to 114 | ≥ 80 |
| N#CCOC(=O)c1cc2c(cc1F)COB2O [Compound 401] | ≥ 80 | ≥ 80 | ≥ 80 |  |  |  |  |  |  |  |  |  |  |
| C=C(C)COC(=O)c1cc2c(cc1F)COB2O [Compound 402] |  | ≥ 80 | ≥ 80 | ≥ 80 | ≥ 80 | ≥ 80 |  | ≥ 80 | ≥ 80 |  |  |  |  |
| C=CCCOC(=O)c1cc2c(cc1F)COB2O [Compound 389] |  |  | ≥ 80 | ≥ 80 | ≥ 80 | ≥ 80 | ≥ 80 | ≥ 80 | ≥ 80 | ≥ 80 | ≥ 80 | 107 to 109 |  |
| C=CCC(OC(=O)c1ccc2c(c1)B(O)OC2)C(=O)OC (stereo not drawn) [Compound 348] | ≥ 80 | ≥ 80 | ≥ 80 |  | ≥ 80 | ≥ 80 | ≥ 80 |  |  |  |  |  |  |
